# Data taken from patent US11737999B2, “Amino acid compositions and methods for the treatment of post-acute sequelae of COVID-19” (AXCELLA HEALTH INC., priority 2021, dated 2023).
# Legend:
# MCP-1 = MCP-1 chemokine secretion in primary human hepatic stellate cells stimulated with TNFα; format: cell-based; details: hepatic stellate cells, two donors
# IL-6 [1] = test: IL-6 cytokine secretion in primary human hepatic stellate cells stimulated with TNFα; format: cell-based; details: hepatic stellate cells, two donors
# MCP1/CCL2 = MCP1/CCL2 secretion by ELISA in primary human hepatocytes with FFA + TNFα; format: cell-based
# IL-6 [2] = test: LPS-induced IL-6 secretion in primary human monocyte-derived macrophages; details: for IL-6 Measurements, Mean: 0.15 ng/mL LPS, baseline subtracted values
# Col1a1 = Col1a1 gene expression (RT-qPCR) in primary human hepatic stellate cells stimulated with TGFβ1; format: cell-based
# TNF-α = test: LPS-induced TNF-α secretion in primary human monocyte-derived macrophages; details: for TNF-α Measurements Mean (baseline subtracted): 0.15 ng/mL LPS
# Procollagen Iα1 = Procollagen Iα1 secretion (ELISA) in primary human hepatic stellate cells stimulated with TGFβ1; format: cell-based; details: for Procollagen lα1 Secretion (Fold Change of 1X), Mean: first donor, TGFβ1 3 ng/mL 24 h
# [3] = hepatic stellate cells, three donors
compound,measurement,setting,value
"CC(=O)N[C@@H](CS)C(=O)O [N-Acetyl Cysteine, N-acetylcysteine]",MCP-1 secretion (summary in words),MCP-1,significantly reduced MCP-1 secretion in both donors
same,IL-6 secretion (summary in words),IL-6 [1],reduced IL-6 secretion in both donors but was only statistically significant in one of two donors
same,"MCP1 expression relative to Control, Mean","MCP1/CCL2; Donor 1, Conc. 1000 μM",−0.7629
same,"MCP1 expression relative to Control, Mean","MCP1/CCL2; Donor 1, Conc. 2500 μM",−2.498
same,"MCP1 expression relative to Control, Mean","MCP1/CCL2; Donor 1, Conc. 5000 μM",−10.8919
same,"MCP1 expression relative to Control, Mean","MCP1/CCL2; Donor 1, Conc. 10000 μM",−17.6065
same,"MCP1 expression relative to Control, Mean","MCP1/CCL2; Donor 2, Conc. 1000 μM",1.602
same,"MCP1 expression relative to Control, Mean","MCP1/CCL2; Donor 2, Conc. 2500 μM",−4.0591
same,"MCP1 expression relative to Control, Mean","MCP1/CCL2; Donor 2, Conc. 5000 μM",−10.5725
same,"MCP1 expression relative to Control, Mean","MCP1/CCL2; Donor 2, Conc. 10000 μM",−28.4419
same,MCP1/CCL2 secretion (summary in words),"MCP1/CCL2; primary human hepatocytes, two healthy donors",significantly decrease MCP1/CCL2 secretion
same,LPS-induced IL-6 secretion (summary in words),IL-6 [2]; Donor 1,significantly reduced LPS-induced IL-6 secretion
same,LPS-induced IL-6 secretion (summary in words),IL-6 [2]; Donor 2,significantly reduced LPS-induced IL-6 secretion
same,"IL-6 Measurements, Mean","IL-6 [2]; Donor 2, Conc. 5 X",−0.7946
same,"IL-6 Measurements, Mean","IL-6 [2]; Donor 2, Conc. 10 X",−9.751
same,"IL-6 Measurements, Mean","IL-6 [2]; Donor 2, Conc. 40 X",−33.7585
same,LPS-induced IL-6 secretion (summary in words),IL-6 [2]; Donor 3,significantly reduced LPS-induced IL-6 secretion
same,"Col1a1 Fold Expression Relative to Control, Mean","Col1a1; first donor, 1000 μM, single amino acid",1.00 fold
same,"Col1a1 Fold Expression Relative to Control, Mean","Col1a1; first donor, 10000 μM, single amino acid",0.76 fold
same,"Col1a1 Fold Expression Relative to Control, Mean","Col1a1; first donor, 5X, normalized to Gapdh, TGFβ1 3 ng/mL 24 h",1.00 fold
same,"Col1a1 Fold Expression Relative to Control, Mean","Col1a1; first donor, 10X, normalized to Gapdh, TGFβ1 3 ng/mL 24 h",1.07 fold
same,"Col1a1 Fold Expression Relative to Control, Mean","Col1a1; first donor, 20X, normalized to Gapdh, TGFβ1 3 ng/mL 24 h",1.02 fold
same,"Col1a1 Fold Expression Relative to Control, Mean","Col1a1; first donor, 40X, normalized to Gapdh, TGFβ1 3 ng/mL 24 h",0.76 fold
same,Col1a1 gene expression (summary in words),Col1a1; [3],significantly reduced Col1a1 gene expression in all three donors
same,"Col1a1 Fold Expression Relative to Control, Mean","Col1a1; second donor (Table 27), 1000 μM, single amino acid",0.69 fold
same,"Col1a1 Fold Expression Relative to Control, Mean","Col1a1; second donor (Table 27), 2500 μM, single amino acid",0.69 fold
same,"Col1a1 Fold Expression Relative to Control, Mean","Col1a1; second donor (Table 27), 5000 μM, single amino acid",0.69 fold
same,"Col1a1 Fold Expression Relative to Control, Mean","Col1a1; second donor (Table 27), 10000 μM, single amino acid",0.57 fold
same,"Col1a1 Fold Expression Relative to Control, Mean","Col1a1; second donor (Table 29), 1000 μM, single amino acid",0.91 fold
same,"Col1a1 Fold Expression Relative to Control, Mean","Col1a1; second donor (Table 29), 2500 μM, single amino acid",0.82 fold
same,"Col1a1 Fold Expression Relative to Control, Mean","Col1a1; second donor (Table 29), 5000 μM, single amino acid",0.73 fold
same,"Col1a1 Fold Expression Relative to Control, Mean","Col1a1; second donor (Table 29), 10000 μM, single amino acid",0.62 fold
same,"Col1a1 Fold Expression Relative to Control, Mean","Col1a1; second donor, 5X, normalized to Gapdh, TGFβ1 3 ng/mL 24 h",0.69 fold
same,"Col1a1 Fold Expression Relative to Control, Mean","Col1a1; second donor, 10X, normalized to Gapdh, TGFβ1 3 ng/mL 24 h",0.69 fold
same,"Col1a1 Fold Expression Relative to Control, Mean","Col1a1; second donor, 20X, normalized to Gapdh, TGFβ1 3 ng/mL 24 h",0.69 fold
same,"Col1a1 Fold Expression Relative to Control, Mean","Col1a1; second donor, 40X, normalized to Gapdh, TGFβ1 3 ng/mL 24 h",0.57 fold
same,"Col1a1 Fold Expression Relative to Control, Mean","Col1a1; third donor, 5X, normalized to Gapdh, TGFβ1 3 ng/mL 24 h",0.91 fold
same,"Col1a1 Fold Expression Relative to Control, Mean","Col1a1; third donor, 10X, normalized to Gapdh, TGFβ1 3 ng/mL 24 h",0.82 fold
same,"Col1a1 Fold Expression Relative to Control, Mean","Col1a1; third donor, 20X, normalized to Gapdh, TGFβ1 3 ng/mL 24 h",0.73 fold
same,"Col1a1 Fold Expression Relative to Control, Mean","Col1a1; third donor, 40X, normalized to Gapdh, TGFβ1 3 ng/mL 24 h",0.62 fold
same,LPS-induced TNF-α secretion (summary in words),TNF-α; Donor 1,significantly reduced LPS-induced TNF-α secretion
same,TNF-α Measurements Mean (baseline subtracted),"TNF-α; Donor 1, Conc. 0 X (baseline)",0
same,TNF-α Measurements Mean (baseline subtracted),"TNF-α; Donor 1, Conc. 5 X",−326.24
same,TNF-α Measurements Mean (baseline subtracted),"TNF-α; Donor 1, Conc. 10 X",−446.88
same,TNF-α Measurements Mean (baseline subtracted),"TNF-α; Donor 1, Conc. 20 X",−561.33
same,TNF-α Measurements Mean (baseline subtracted),"TNF-α; Donor 1, Conc. 40 X",−644.49
same,LPS-induced TNF-α secretion (summary in words),TNF-α; Donor 2,significantly reduced LPS-induced TNF-α secretion
same,TNF-α Measurements Mean (baseline subtracted),"TNF-α; Donor 2, Conc. 0 X (baseline)",9.47E−15
same,TNF-α Measurements Mean (baseline subtracted),"TNF-α; Donor 2, Conc. 5 X",−54.1596
same,TNF-α Measurements Mean (baseline subtracted),"TNF-α; Donor 2, Conc. 10 X",−70.8382
same,TNF-α Measurements Mean (baseline subtracted),"TNF-α; Donor 2, Conc. 20 X",−88.6528
same,TNF-α Measurements Mean (baseline subtracted),"TNF-α; Donor 2, Conc. 40 X",−103.984
same,LPS-induced TNF-α secretion (summary in words),TNF-α; Donor 3,significantly reduced LPS-induced TNF-α secretion
same,TNF-α Measurements Mean (baseline subtracted),"TNF-α; Donor 3, Conc. 0 X (baseline)",4.74E−15
same,TNF-α Measurements Mean (baseline subtracted),"TNF-α; Donor 3, Conc. 5 X",−33.6246
same,TNF-α Measurements Mean (baseline subtracted),"TNF-α; Donor 3, Conc. 10 X",−41.7266
same,TNF-α Measurements Mean (baseline subtracted),"TNF-α; Donor 3, Conc. 20 X",−48.4373
same,TNF-α Measurements Mean (baseline subtracted),"TNF-α; Donor 3, Conc. 40 X",−55.3093
same,"Procollagen lα1 Secretion (Fold Change of 1X), Mean",Procollagen Iα1; 5X,0.9175 fold
same,"Procollagen lα1 Secretion (Fold Change of 1X), Mean",Procollagen Iα1; 10X,0.7939 fold
same,"Procollagen lα1 Secretion (Fold Change of 1X), Mean",Procollagen Iα1; 20X,0.6593 fold
same,"Procollagen lα1 Secretion (Fold Change of 1X), Mean",Procollagen Iα1; 40X,0.5076 fold
same,procollagen Iα1 secretion (summary in words),Procollagen Iα1; [3],significantly decrease procollagen Iα1 secretion in two of the three donors
same,"Procollagen Iα1 Secretion, Mean","Procollagen Iα1; second donor, Conc. 5 X",0.8387 Fold Change of 1X
same,"Procollagen Iα1 Secretion, Mean","Procollagen Iα1; second donor, Conc. 10 X",0.8877 Fold Change of 1X
same,"Procollagen Iα1 Secretion, Mean","Procollagen Iα1; second donor, Conc. 20 X",0.7378 Fold Change of 1X
same,"Procollagen Iα1 Secretion, Mean","Procollagen Iα1; second donor, Conc. 40 X",0.8383 Fold Change of 1X
same,"Procollagen Iα1 Secretion, Mean","Procollagen Iα1; third donor, Conc. 5 X",1.0897 Fold Change of 1×
same,"Procollagen Iα1 Secretion, Mean","Procollagen Iα1; third donor, Conc. 10 X",0.9391 Fold Change of 1×
same,"Procollagen Iα1 Secretion, Mean","Procollagen Iα1; third donor, Conc. 20 X",0.8521 Fold Change of 1×
same,"Procollagen Iα1 Secretion, Mean","Procollagen Iα1; third donor, Conc. 40 X",0.6962 Fold Change of 1×
